Values joined by “and” are separate entries in the source; they are usually repeats but may differ in a detail not shown here. Identical values can stand only once.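 Results reflect a 48-hour exposure of cells in 96-well plates to compound at five concentrations. GI50 is the concentration that inhibits growth by half. TGI marks complete inhibition of growth.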
Tests used:
Experiment in all cases: growth of human tumour cells (NCI), 48 h
EKVX NSCLC = test system: EKVX NSCLC
OVCAR-3 ovarian = test system: OVCAR-3 ovarian
SN12C renal = test system: SN12C renal
SF-295 CNS = test system: SF-295 CNS
CAKI-1 renal = test system: CAKI-1 renal
IGROV1 ovarian = test system: IGROV1 ovarian
SW-620 colon = test system: SW-620 colon
UACC-62 melanoma = test system: UACC-62 melanoma
NCI-H23 lung = test system: NCI-H23 lung
NCI-H522 lung = test system: NCI-H522 lung

| SMILES | TGI (EKVX NSCLC) | TGI (OVCAR-3 ovarian) | TGI (SN12C renal) | TGI (SF-295 CNS) | TGI (CAKI-1 renal) | TGI (IGROV1 ovarian) | TGI (SW-620 colon) | TGI (UACC-62 melanoma) | TGI (NCI-H23 lung) | TGI (NCI-H522 lung) | GI50 (OVCAR-3 ovarian) | GI50 (SN12C renal) | GI50 (UACC-62 melanoma) | GI50 (NCI-H522 lung) | GI50 (EKVX NSCLC) | GI50 (SF-295 CNS) | GI50 (CAKI-1 renal) | GI50 (SW-620 colon) | GI50 (NCI-H23 lung) |
| --- | --- | --- | --- | --- | --- | --- | --- | --- | --- | --- | --- | --- | --- | --- | --- | --- | --- | --- | --- |
| N#Cc1c(C#N)c(SSc2c(C#N)c(C#N)c(N)n2-c2ccccc2)n(-c2ccccc2)c1N | 59.5 µM | 45.2 µM | 38.3 µM | > 58.6 µM | 2.99 µM | > 60.5 µM | 3.43 µM | 46.4 µM | > 61 µM | > 100 µM |  |  |  |  |  |  |  |  |  |
| CN1OC(=O)N(C)C1c1ccccc1 (configuration not stated) | > 100 µM | > 100 µM | > 100 µM | > 100 µM |  | > 100 µM | > 100 µM | > 100 µM | > 100 µM | > 100 µM |  |  |  |  |  |  |  |  |  |
| CNC(=O)CN1CC(=O)N(C)C(=O)C1 |  | > 100 µM |  |  | > 100 µM | > 100 µM | > 100 µM | > 100 µM | > 100 µM | > 100 µM |  |  |  |  |  |  |  |  |  |
| O=C(O)CCC1(c2ccccc2)NC(=O)NC1=O (configuration not stated) | > 100 µM | > 100 µM | > 100 µM | > 100 µM | > 100 µM | > 100 µM | > 100 µM | > 100 µM | > 100 µM | > 100 µM |  |  |  |  |  |  |  |  |  |
| COc1ccc2c(c1)c1cc(OC)ccc1n2CCCCOc1ccc(-c2c3ccccc3c(-c3ccc(OCCCCn4c5ccc(OC)cc5c5cc(OC)ccc54)cc3)c3ccccc23)cc1 | > 100 µM | > 100 µM | > 100 µM |  | > 100 µM | > 100 µM | > 100 µM | > 100 µM |  | > 100 µM |  |  |  |  |  |  |  |  |  |
| CC(=O)Oc1c(OC(C)=O)c(-c2ccc(O)c(O)c2)c(O)c(O)c1-c1ccc(O)cc1 | > 100 µM | > 100 µM | > 100 µM | > 100 µM | > 100 µM | > 100 µM | > 100 µM | 45.4 µM and 75.5 µM | > 100 µM | 45.2 µM and 33 µM | 59.5 µM | 73.8 µM | 21.7 µM | 20.1 µM |  |  |  |  |  |
| Nc1ccn(C2OC(COP(=O)(O)Oc3ccccc3)C(O)C2O)c(=O)n1 (configuration not stated) | > 100 µM | > 100 µM | > 100 µM | > 100 µM | > 100 µM | > 100 µM | > 100 µM | > 100 µM | > 100 µM | > 100 µM |  |  |  |  |  |  |  |  |  |
| COc1ccc(NC2=NCCO2)c2ccccc12 | > 10 µM | > 10 µM | > 10 µM | > 10 µM | > 10 µM | > 10 µM | > 10 µM | > 10 µM |  | > 10 µM |  |  |  |  |  |  |  |  |  |
| Cc1nc(-c2nc([N+](=O)[O-])c([N+](=O)[O-])[nH]2)cs1 | > 100 µM | > 100 µM | > 100 µM | > 100 µM | > 100 µM | > 100 µM | > 100 µM | > 100 µM | > 100 µM | > 100 µM |  |  |  |  |  |  |  |  |  |
| CCN1/C(=C/C(C)=C/c2sc3ccccc3[n+]2CC)Sc2ccccc21 | 1.4 µM |  |  | 0.491 µM | 0.693 µM | 2 µM |  | 1.21 µM | 0.824 µM |  |  |  |  |  |  |  |  |  |  |
| O/N=C\c1cc(O)c(O)c(/C=N/O)c1 | > 100 µM | > 100 µM | > 100 µM | > 100 µM | > 100 µM | > 100 µM | > 100 µM | > 100 µM | > 100 µM | 71.9 µM |  |  |  |  |  |  |  |  |  |
| Cc1ccc2[nH]c3c(C)c4ccncc4c(C)c3c2c1 | 2.5 µM | 3.27 µM | 2.39 µM | 2.32 µM | 1.85 µM | 2.44 µM | 1.7 µM | 3.26 µM | 2.98 µM | 2.28 µM |  |  |  |  |  |  |  |  |  |
| O=C(CCN1CCCC1)Nc1ccc2c(NCCCc3ccccc3)c3ccccc3nc2c1 | 2.56 µM |  | 2.21 µM | 2.59 µM | 28 µM |  | 1.93 µM | 2.93 µM | 2.41 µM | 2.15 µM |  | 0.815 µM | 1.54 µM | 0.664 µM | 1.21 µM | 1.31 µM | 14.8 µM | 0.54 µM | 1.12 µM |
| COc1cc2c(cc1OC)CCN=C2 |  | > 100 µM | > 100 µM | > 100 µM | > 100 µM | > 100 µM | > 100 µM | > 100 µM | > 100 µM |  |  |  |  |  |  |  |  |  |  |
